How the values were obtained:
[1] = biological target: Myeloid Cell Leukemia 1 (Mcl-1) (Homo sapiens (Human), UniProt Q07820); experiment: Terbium labeled Mcl-1 HTRF binding assay (displacement of Cy5-labeled BIM BH3 peptide); conditions: 25 pM Tb-Mcl-1, 8 nM Cy5 Bim peptide, Ki=IC50/(1+[L]/Kd), [L]=8 nM, Kd=10 nM, read-out: TB-MCL1 Ki
Method: Terbium labeled Myeloid Cell Leukemia 1 (Mcl-1) homogeneous time-resolved fluorescence (HTRF) binding assay utilizing the BIM BH3 peptide (H2N-(C/Cy5Mal) WIAQELRRIGDEFN-OH) as the binding partner for Mcl-1.
This assay evaluated inhibition of the BH3 domain: Mcl-1 interaction by measuring the displacement of Cy5-labeled BIM BH3 peptide (H2N—(C/Cy5Mal) WIAQELRRIGDEFN-OH) in the HTRF assay format.
The following assay and stock buffers were prepared for use in the assay: (a) Stock buffer: 10 mM Tris-HCl, pH=7.5+150 mM NaCl, filtered, sterilized, and stored at 4° C.; and (b) 1× assay buffer, where the following ingredients were added fresh to stock buffer: 2 mM dithiothreitol (DTT), 0.0025% Tween-20, 0.1 mg/mL bovine serum albumin (BSA). The 1×Tb-Mcl-1+Cy5 Bim peptide solution was prepared by diluting the protein stock solution using the 1× assay buffer (b) to 25 pM Tb-Mcl-1 and 8 nM Cy5 Bim peptide.
Using the Acoustic ECHO, 100 nL of 100× test compound(s) were dispensed into individual wells of a white 384-well Perkin Elmer Proxiplate, for a final compound concentration of 1× and final DMSO concentration of 1%. Inhibitor control and neutral control (NC, 100 nL of 100% DMSO) were stamped into columns 23 and 24 of assay plate, respectively. Into each well of the plate was then dispensed 10 μL of the 1×Tb-Mcl-1+Cy5 Bim peptide solution. The plate was centrifuged with a cover plate at 1000 rpm for 1 minute, then incubated for 60 minutes at room temperature with plates covered. The TR-FRET signal was read on an BMG PHERAStar FSX MicroPlate Reader at room temperature using the HTRF optic module (HTRF: excitation: 337 nm, light source: laser, emission A: 665 nm, emission B: 620 nm, integration start: 60 μs, integration time: 400 pts).
The BMG PHERAStar FSX MicroPlate Reader was used to measure fluorescence intensity at two emission wavelengths—665 nm and 620 nm—and report relative fluorescence units (RFU) for both emissions, as well as a ratio of the emissions (665 nm/620 nm)*10,000. The RFU values were normalized to percent inhibition as follows:
% inhibition=(((NC−IC)−(compound−IC))/(NC−IC))*100
where IC (inhibitor control, low signal)=mean signal of 1×Tb-MC1-1+Cy5 Bim peptide+inhibitor control or 100% inhibition of Mcl-1; NC (neutral control, high signal)=mean signal 1×Tb-MC1-1+Cy5 Bim peptide with DMSO only or 0% inhibition
An 11-point dose response curve was generated to determine IC50 values (using GenData) based on the following equation:
Y=Bottom+(Top−Bottom)/(1+10^((log IC50−X)*HillSlope))
where Y=% inhibition in the presence of X inhibitor concentration; Top=100% inhibition derived from the IC (mean signal of Mcl-1+inhibitor control); Bottom=0% inhibition derived from the NC (mean signal of Mcl-1+DMSO); Hillslope=Hill coefficient; and IC50=concentration of compound with 50% inhibition in relation to top/neutral control (NC).
In this assay [L]=8 nM and Kd=10 nM
Representative compounds of the present invention were tested according to the procedure as described above, with results as listed in the Table below (n.d. means not determined).

[2] = test system: MOLP-8 human multiple myeloma cell line; experiment: MOLP8 Caspase-Glo 3/7 apoptosis induction assay; type: cell-based; conditions: MOLP-8 cells, 2 hours incubation at 37° C., averaged values over all runs on all batches
Description: MCL-1 is a regulator of apoptosis and is highly over-expressed in tumor cells that escape cell death. The assay evaluates the cellular potency of small-molecule compounds targeting regulators of the apoptosis pathway, primarily MCL-1, Bfl-1, Bcl-2, and other proteins of the Bcl-2 family. Protein-protein inhibitors disrupting the interaction of anti-apoptotic regulators with BH3-domain proteins initiate apoptosis.
The Caspase-Glo® 3/7 Assay is a luminescent assay that measures caspase-3 and -7 activities in purified enzyme preparations or cultures of adherent or suspension cells. The assay provides a proluminescent caspase-3/7 substrate, which contains the tetrapeptide sequence DEVD. This substrate is cleaved to release aminoluciferin, a substrate of luciferase used in the production of light. Addition of the single Caspase-Glo® 3/7 Reagent in an “add-mix-measure” format results in cell lysis, followed by caspase cleavage of the substrate and generation of a “glow-type” luminescent signal.
This assay uses the MOLP-8 human multiple myeloma cell line, which is sensitive to MCL-1 inhibition.
Materials: • Perkin Elmer Envision • Multidrop 384 and small volume dispensing cassettes • Centrifuge • Countess automated cell counter • Countess counting chamber slides • Assay plate: ProxiPlate-384 Plus, White 384-shallow well Microplate • Sealing tape: Topseal A plus • T175 culture flask
Cell cultures were maintained between 0.2 and 2.0×10^6 cells/mL. The cells were harvested by collection in 50 mL conical tubes. The cells were then pelleted at 500 g for 5 mins before removing supernatant and resuspension in fresh pre-warmed culture medium. The cells were counted and diluted as needed.
The assay reagent was prepared by transferring the buffer solution to the substrate vial and mixing. The solution may be stored for up to 1 week at 4° C. with negligible loss of signal.
Compounds were delivered in assay-ready plates (Proxiplate) and stored at −20° C.
Assays always include 1 reference compound plate containing reference compounds. The plates were spotted with 40 nL of compounds (0.5% DMSO final in cells; serial dilution; 30 μM highest conc. 1/3 dilution, 10 doses, duplicates). The compounds were used at room temperature and 4 μL of pre-warmed media was added to all wells except column 2 and 23. The negative control was prepared by adding 1% DMSO in media. The positive control was prepared by adding the appropriate positive control compound in final concentration of 60 μM in media. The plate was prepared by adding 4 μL negative control to column 23, 4 μL positive control to column 2 and 4 μL cell suspension to all wells in the plate. The plate with cells was then incubated at 37° C. for 2 hours. The assay signal reagent is the Caspase-Glo solution described above, and 8 μL was added to all wells. The plates were then sealed and measured after 30 minutes.
The activity of a test compound was calculated as percent change in apoptosis induction as follows: • LC=median of the Low Control values • =Central Reference in Screener • =DMSO • =0% • HC=Median of the High Control values • =Scale Reference in Screener • =30 μM of positive control • =100% apoptosis induction
% Effect (AC50)=100−((sample−LC)/(HC−LC))*100
% Control=(sample/HC)*100
% Control min=((sample−LC)/(HC−LC))*100

Myeloid Cell Leukemia 1 (Mcl-1), sequence (Q07820 whole entry): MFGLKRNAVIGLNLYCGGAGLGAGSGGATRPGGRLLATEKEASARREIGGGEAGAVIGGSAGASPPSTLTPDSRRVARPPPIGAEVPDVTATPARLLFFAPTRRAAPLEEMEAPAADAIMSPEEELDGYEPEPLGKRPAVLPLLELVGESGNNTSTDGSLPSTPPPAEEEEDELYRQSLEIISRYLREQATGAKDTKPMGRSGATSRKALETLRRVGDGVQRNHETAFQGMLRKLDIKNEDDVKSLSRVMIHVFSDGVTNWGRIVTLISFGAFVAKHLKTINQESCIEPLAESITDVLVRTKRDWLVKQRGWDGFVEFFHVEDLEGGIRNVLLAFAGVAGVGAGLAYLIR

Row | Compound | Ki [1] | AC50 [2] | AC50 ([2]; Homo sapiens, MOLP-8, 2 h)
1 | COc1ccc(COC2CCc3cc(n(C)n3)CCc3cc(c4ccc(F)cc4c3)OCCCn3c(C(=O)O)c(C)c4c(c(Cl)ccc43)-c3c2nn(C)c3C)cc1 (single isomer, unassigned) [Compound 22] | 0.357 nM | 1000 nM | –
2 | COc1ccc(COC2CCc3cc(n(C)n3)CCc3cc(c4ccc(F)cc4c3)OCCCn3c(C(=O)O)c(C)c4c(c(Cl)ccc43)-c3c2nn(C)c3C)cc1 (single isomer, unassigned) [Compound 23] | 0.073 nM | 169 nM | –
3 | COCCCC1OCc2cc(n(C)n2)CCc2cc(c3ccc(F)cc3c2)OCCCn2c(C(=O)O)c(C)c3c(c(Cl)ccc32)-c2c1nn(C)c2C (single isomer, unassigned) [Compound 24] | 8.42 nM | > 25 nM | –
4 | Cc1c(C(=O)O)n2c3ccc(Cl)c(c13)-c1c(nn(C)c1C)C(CCO)OCc1cc(n(C)n1)CCc1cc(c3ccc(F)cc3c1)OCCC2 (stereo not shown) [Compound 6] | 0.009 nM | – | 52.7 nM
5 | COCCOCCn1nc(C)c2c1C(C)OCc1cc(n(C)n1)CCc1cc(c3ccc(F)cc3c1)OCCCn1c(C(=O)O)c(C)c3c-2c(Cl)ccc31 (stereo not shown) [Compound 21] | 0.057 nM | 318 nM | –
6 | CNCCC1OCc2cc(n(C)n2)CCc2cc(c3ccc(F)cc3c2)OCCCn2c(C(=O)O)c(C)c3c(c(Cl)ccc32)-c2c1nn(C)c2C (stereo not shown) [Compound 26] | 3.61 nM | – | > 30 nM
7 | Cc1nn2c3c1-c1c(Cl)ccc4c1c(C)c(C(=O)O)n4CCCOc1cc(cc4cc(F)ccc14)CCc1cc(nn1C)CCC3OCC2 (stereo not shown) [Compound 29] | 0.302 nM | 146 nM | –
8 | COCCn1nc2cc1CCc1cc(c3ccc(F)cc3c1)OCCCn1c(C(=O)O)c(C)c3c(c(Cl)ccc31)-c1c(C)nn3c1C(CC2)OCC3 (stereo not shown) [Compound 34] | 0.408 nM | 889 nM | –

From patent US20240124487A1, “BRANCHED MACROCYCLIC 4-(PYRAZOL-5-YL)-INDOLE DERIVATIVES AS INHIBITORS OF MCL-1” (JANSSEN PHARMACEUTICA NV, priority 2020, published 2024)
